The target in this assay is Mitogen-activated protein kinase 14 (Homo sapiens, UniProt Q16539). Briefly: Inhibition of p38alpha in human THP1 cells assessed as suppression of LPS-induced TNFalpha secretion preincubated for 30 mins followed by LPS challenge measured after 2 hrs. In kind it is cell-based, THP-1.

Here are results for two compounds from ChEMBL document CHEMBL3861948 (Medchemcomm, 2016).

Mitogen-activated protein kinase 14, sequence (Q16539 whole entry): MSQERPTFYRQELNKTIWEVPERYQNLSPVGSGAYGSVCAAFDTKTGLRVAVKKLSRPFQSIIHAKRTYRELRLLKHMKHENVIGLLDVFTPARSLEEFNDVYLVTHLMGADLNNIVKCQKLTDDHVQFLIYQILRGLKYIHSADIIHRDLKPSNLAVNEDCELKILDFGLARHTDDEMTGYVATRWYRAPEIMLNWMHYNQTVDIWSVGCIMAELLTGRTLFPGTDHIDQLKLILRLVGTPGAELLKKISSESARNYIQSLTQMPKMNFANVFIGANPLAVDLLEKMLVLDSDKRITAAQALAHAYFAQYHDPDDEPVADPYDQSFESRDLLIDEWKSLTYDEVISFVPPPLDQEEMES

The term IC50 denotes the concentration needed to halve the response being measured. `CNC(=O)[C@H](Cc1cccc(C(F)(F)F)c1)NC(=O)c1ccc(CNC(=O)c2cnn(-c3ccccc3)c2N)cc1`: the IC50 was 46 nM.

Turning to `NC(=O)[C@H](CCC1CCCCC1)NC(=O)[C@H]1CC[C@H](CNC(=O)c2cnn(-c3ccccc3)c2N)CC1`, the IC50 came to 44 nM.
